Like-named read-outs stand apart in the source and are kept apart here.
Experiments:
Format in all cases: biochemical
[1] = biological target: CDK6/CCND1 (Homo sapiens, UniProt Q00534); test: CDK6 homogeneous time-resolved fluorescence (HTRF) kinase assay
Summary of the method: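 Enzyme pre-incubated 20 min at 23 °C with compound, then reacted 60 min at 23 °C with 1 mM ATP and 50 nM ULight-4E-BP1 (Thr37/46) peptide; 1 nM enzyme, 1% DMSO. EDTA-stopped, Eu-anti-phospho antibody TR-FRET read (665 nm or 665/615 ratio); 11-point half-log titration from 10 μM gave IC50.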

[2] = biological target: CDK2/CCNE1 (Homo sapiens, UniProt P24941); test: CDK2 homogeneous time-resolved fluorescence (HTRF) kinase assay
Summary of the method: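 Compounds were titrated 11-point, half-log from typically 10 μM against 3 nM CDK2/cyclin E1 at 1 mM ATP, with a 20 min enzyme preincubation. Phosphorylation of 50 nM ULight-4E-BP1 peptide over 60 min at 23 °C was detected by europium anti-phospho antibody TR-FRET.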

[3] = biological target: CDK4/CCND3 (Homo sapiens, UniProt P11802); test: CDK4 homogeneous time-resolved fluorescence (HTRF) kinase assay
Summary of the method: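 CDK4/CCND3 at 1.5 nM was preincubated with compound for 20 min at 23 °C, then reacted for 60 min with 1 mM ATP and 50 nM ULight-4E-BP1 (Thr37/46) peptide. The reaction was stopped with EDTA, and phosphorylation was read by HTRF with a Eu-anti-phospho antibody. IC50 values came from 11-point half-log titrations, typically from 10 μM.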

[4] = biological target: CDK1/CCNB1 (Homo sapiens, UniProt P06493); test: CDK1 homogeneous time-resolved fluorescence (HTRF) kinase assay
Summary of the method: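 HTRF assay with 0.5 nM CDK1/CCNB1, 1 mM ATP, 50 nM ULight-eIF4E-BP1 (Thr37/46) peptide; compound preincubated 20 min, reaction 60 min at 23 °C, EDTA stop, Eu-anti-phospho antibody detection. 11-point half-log titration from 10 μM, 1% DMSO; IC50 from 665 nm or 665/615 signal.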

[5] = CDK6/CCND, >250 nM marked x, read-out: CDK6/CCND IC50 >250 nM
[6] = CDK4/CCND, >250 nM marked x, read-out: CDK4/CCND IC50 >250 nM
[7] = CDK1/CCNB, >250 nM marked x, read-out: CDK1/CCNB IC50 >250 nM
[8] = >250 nM, CDK6/CCND, 1 mM ATP, read-out: CDK6/CCND IC50, >250 nM
[9] = >250 nM, CDK4/CCND, read-out: CDK4/CCND IC50, >250 nM
[10] = >250 nM, CDK1/CCNB, read-out: CDK1/CCNB IC50 >250 nM
[11] = CDK6/CCND, x = IC50 >250 nM, read-out: CDK6/CCND IC50 (>250 nM column)
[12] = CDK4/CCND, x = IC50 >250 nM, read-out: CDK4/CCND IC50 (>250 nM column)
[13] = CDK2/CCNE, x = IC50 25-250 nM, read-out: CDK2/CCNE IC50 (25-250 nM)
[14] = CDK1/CCNB, x = IC50 >250 nM, read-out: CDK1/CCNB IC50 (>250 nM column)
[15] = 25-250 nM, CDK2/CCNE, read-out: CDK2/CCNE IC50, 25-250 nM
[16] = CDK2/CCNE, <25 nM, read-out: CDK2/CCNE IC50 <25 nM

Sequence of CDK6/CCND1 (Q00534 whole entry): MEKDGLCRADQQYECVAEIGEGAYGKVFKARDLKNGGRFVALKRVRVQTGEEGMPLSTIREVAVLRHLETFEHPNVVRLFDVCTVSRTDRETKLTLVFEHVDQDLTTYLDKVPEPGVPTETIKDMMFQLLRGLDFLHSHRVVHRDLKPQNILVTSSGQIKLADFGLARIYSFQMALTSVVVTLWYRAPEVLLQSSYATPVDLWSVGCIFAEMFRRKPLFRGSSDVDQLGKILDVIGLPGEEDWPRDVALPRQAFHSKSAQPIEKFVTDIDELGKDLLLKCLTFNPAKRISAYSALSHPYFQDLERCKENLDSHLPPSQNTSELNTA
Sequence of CDK6/CCND1 (P24385 whole entry partner): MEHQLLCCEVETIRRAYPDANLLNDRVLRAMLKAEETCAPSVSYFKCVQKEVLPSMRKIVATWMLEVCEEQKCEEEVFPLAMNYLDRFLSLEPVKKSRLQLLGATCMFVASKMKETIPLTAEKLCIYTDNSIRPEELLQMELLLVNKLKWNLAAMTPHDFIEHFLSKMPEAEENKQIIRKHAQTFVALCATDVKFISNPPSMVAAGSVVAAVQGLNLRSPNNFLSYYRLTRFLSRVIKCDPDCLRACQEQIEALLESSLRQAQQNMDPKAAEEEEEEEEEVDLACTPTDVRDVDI
Sequence of CDK1/CCNB1 (P06493 whole entry): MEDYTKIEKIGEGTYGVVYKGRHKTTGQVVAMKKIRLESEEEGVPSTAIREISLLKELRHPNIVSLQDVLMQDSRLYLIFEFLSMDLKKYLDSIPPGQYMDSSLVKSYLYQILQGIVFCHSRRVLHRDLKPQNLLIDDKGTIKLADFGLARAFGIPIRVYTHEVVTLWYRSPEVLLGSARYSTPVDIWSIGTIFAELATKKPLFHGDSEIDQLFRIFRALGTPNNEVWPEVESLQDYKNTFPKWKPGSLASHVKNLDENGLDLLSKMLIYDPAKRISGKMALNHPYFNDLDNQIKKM
Sequence of CDK1/CCNB1 (P14635 whole entry partner): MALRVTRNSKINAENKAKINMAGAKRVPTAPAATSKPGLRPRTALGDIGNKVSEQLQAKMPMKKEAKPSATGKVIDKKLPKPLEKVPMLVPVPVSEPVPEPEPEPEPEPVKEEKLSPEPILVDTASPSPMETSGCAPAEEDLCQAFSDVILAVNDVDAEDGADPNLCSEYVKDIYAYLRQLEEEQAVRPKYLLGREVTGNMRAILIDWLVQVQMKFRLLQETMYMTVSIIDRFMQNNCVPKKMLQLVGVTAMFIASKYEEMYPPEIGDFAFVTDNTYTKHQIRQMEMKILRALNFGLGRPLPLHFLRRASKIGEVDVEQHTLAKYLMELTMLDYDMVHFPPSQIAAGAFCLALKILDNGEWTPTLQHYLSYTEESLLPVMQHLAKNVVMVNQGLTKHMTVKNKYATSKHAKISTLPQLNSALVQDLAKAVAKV
Sequence of CDK4/CCND3 (P11802 whole entry): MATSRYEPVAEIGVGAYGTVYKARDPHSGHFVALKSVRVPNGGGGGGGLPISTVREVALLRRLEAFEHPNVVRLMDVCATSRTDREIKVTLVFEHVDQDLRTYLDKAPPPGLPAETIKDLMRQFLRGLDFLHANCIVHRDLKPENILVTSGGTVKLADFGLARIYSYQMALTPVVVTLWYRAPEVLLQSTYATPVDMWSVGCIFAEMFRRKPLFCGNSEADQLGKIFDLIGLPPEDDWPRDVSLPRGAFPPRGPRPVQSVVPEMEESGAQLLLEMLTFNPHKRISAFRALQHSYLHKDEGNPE
Sequence of CDK4/CCND3 (P30281 whole entry partner): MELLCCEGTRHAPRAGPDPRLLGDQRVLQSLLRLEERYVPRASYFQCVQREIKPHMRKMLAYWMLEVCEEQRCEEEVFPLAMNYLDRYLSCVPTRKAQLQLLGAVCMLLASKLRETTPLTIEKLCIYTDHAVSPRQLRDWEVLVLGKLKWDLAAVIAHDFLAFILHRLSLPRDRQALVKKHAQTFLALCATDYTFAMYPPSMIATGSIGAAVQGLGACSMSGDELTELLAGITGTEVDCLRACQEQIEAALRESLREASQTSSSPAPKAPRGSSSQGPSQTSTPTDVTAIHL

CCC1(CC)C(=O)Nc2cc(C#Cc3nccc4cnc(Nc5ccc(S(=N)(=O)C6CC(F)(F)C6)cc5F)cc34)ccc21 (single isomer, unassigned) [Ex 301, 6-((7-((4-(3,3-difluorocyclobutane-1-sulfonimidoyl)-2-fluorophenyl)amino)-2,6-naphthyridin-1-yl)ethynyl)-3,3-diethylindolin-2-one]
IC50 [1, 5]: > 250 nM
IC50 ([2]; CDK2/CCNE, >250 nM marked x, read-out: CDK2/CCNE IC50 >250 nM): > 250 nM
IC50 [3, 6]: > 250 nM
IC50 [4, 7]: > 250 nM

CCOC(=O)c1cn2cc(C#Cc3nccc4cnc(Nc5ccc(S(C)(=O)=O)cc5)cc34)ccc2n1 [Ex 851, ethyl6-((7-((4-(methylsulfonyl)phenyl)amino)-2,6-naphthyridin-1-yl)ethynyl)imidazo[1,2-a]pyridine-2-carboxylate]
IC50 [1, 8]: > 250 nM
IC50 ([2]; >250 nM, CDK2/CCNE, read-out: CDK2/CCNE IC50, >250 nM): > 250 nM
IC50 [3, 9]: > 250 nM
IC50 [4, 10]: > 250 nM

O=C1Nc2cc(C#Cc3nccc4cnc(Nc5ccc(S(=O)(=O)C6CC6)cc5)cc34)ccc2C12CC2 [Ex 392, 6'-((7-((4-(cyclopropylsulfonyl)phenyl)amino)-2,6-naphthyridin-1-yl)ethynyl)spiro[cyclopropane-1,3'-indolin]-2'-one]
IC50 [1, 11]: > 250 nM
IC50 ([2]; CDK2/CCNE, x = IC50 <25 nM, read-out: CDK2/CCNE IC50 (<25 nM)): < 25 nM
IC50 [3, 12]: > 250 nM
IC50 ([4]; CDK1/CCNB, x = IC50 25-250 nM, read-out: CDK1/CCNB IC50 (25-250 nM)): 25 to 250 nM

CS(=O)(=O)c1ccc(Nc2cc3c(C#Cc4ccc(CC#N)cc4)nccc3cn2)cc1 [Ex 620, 2-(4-((7-((4-(methylsulfonyl)phenyl)amino)-2,6-naphthyridin-1-yl)ethynyl)phenyl)acetonitrile]
IC50 [1, 11]: > 250 nM
IC50 [2, 13]: 25 to 250 nM
IC50 [3, 12]: > 250 nM
IC50 [4, 14]: > 250 nM

Cc1c(-c2nccc3cnc(Nc4ccnc(OCc5ccccc5)c4)cc23)ccc2c1cnn2CC(C)(C)O [Ex 939, 1-(5-(7-((2-(benzyloxy)pyridin-4-yl)amino)-2,6-naphthyridin-1-yl)-4-methyl-1H-indazol-1-yl)-2-methylpropan-2-ol]
IC50 [1, 8]: > 250 nM
IC50 [2, 15]: 25 to 250 nM
IC50 [3, 9]: > 250 nM
IC50 [4, 10]: > 250 nM

CS(=O)(=O)c1ccc(Nc2cc3c(C#Cc4ccc5c(c4)CCNC5)c(C#N)ccc3cn2)cc1 [Example 947, 3-((4-(methylsulfonyl)phenyl)amino)-5-((1,2,3,4-tetrahydroisoquinolin-6-yl)ethynyl)isoquinoline-6-carbonitrile]
IC50 ([1]; 1 nM CDK6/CCND1, 1 mM ATP, read-out: CDK6/CCND IC50 25-250 nM): 25 to 250 nM
IC50 ([2]; 3 nM CDK2/CCNE1, 1 mM ATP, read-out: CDK2/CCNE IC50 25-250 nM): 25 to 250 nM
IC50 ([3]; 1.5 nM CDK4/CCND3, 1 mM ATP, read-out: CDK4/CCND IC50 25-250 nM): 25 to 250 nM
IC50 ([4]; 0.5 nM CDK1/CCNB1, 1 mM ATP, read-out: CDK1/CCNB IC50 >250 nM): > 250 nM

N#Cc1ccc(C#Cc2nccc3cnc(Nc4ccc(S(=O)(=O)N5CCOCC5)cc4)cc23)cc1 [Ex 934, 4-((7-((4-(morpholinosulfonyl)phenyl)amino)-2,6-naphthyridin-1-yl)ethynyl)benzonitrile]
IC50 [1, 8]: > 250 nM
IC50 [2, 15]: 25 to 250 nM
IC50 [3, 9]: > 250 nM
IC50 [4, 10]: > 250 nM

C=CS(=O)(=O)c1ccc(Nc2cc3c(-c4ccc5cc[nH]c5c4)nccc3cn2)cc1 [Ex 162, 5-(1H-indol-6-yl)-N-(4-(vinylsulfonyl)phenyl)-2,6-naphthyridin-3-amine]
IC50 [1, 5]: > 250 nM
IC50 [2, 16]: < 25 nM
IC50 [3, 6]: > 250 nM
IC50 [4, 7]: > 250 nM

Nc1ncccc1C#Cc1nccc2cnc(Nc3cnc(O)c(N4CCNCC4)c3)cc12 [Example 465, 5-((5-((2-aminopyridin-3-yl)ethynyl)-2,6-naphthyridin-3-yl)amino)-3-(piperazin-1-yl)pyridin-2-ol]
IC50 [1, 11]: > 250 nM
IC50 [2, 13]: 25 to 250 nM
IC50 [3, 12]: > 250 nM
IC50 [4, 14]: > 250 nM

Cc1c(-c2nccc3cnc(Nc4ccc(S(C)(=O)=O)cc4)cc23)ccc2c1cnn2CC(=O)NC1CCCCC1 [Example 642, N-cyclohexyl-2-(4-methyl-5-(7-((4-(methylsulfonyl)phenyl)amino)-2,6-naphthyridin-1-yl)-1H-indazol-1-yl)acetamide]
IC50 [1, 11]: > 250 nM
IC50 [2, 13]: 25 to 250 nM
IC50 [3, 12]: > 250 nM
IC50 [4, 14]: > 250 nM

CS(=O)(=O)c1ccc(Nc2cc3c(C#Cc4cncc(Cl)c4N)nccc3cn2)cc1 [Ex 575, 5-((4-amino-5-chloropyridin-3-yl)ethynyl)-N-(4-(methylsulfonyl)phenyl)-2,6-naphthyridin-3-amine]
IC50 [1, 11]: > 250 nM
IC50 [2, 13]: 25 to 250 nM
IC50 [3, 12]: > 250 nM
IC50 [4, 14]: > 250 nM

CC(C)N(C)c1nccc2cnc(NC3CCN(S(C)(=O)=O)CC3)cc12 [Ex 35, N1-isopropyl-N1-methyl-N7-(1-(methylsulfonyl)piperidin-4-yl)-2,6-naphthyridine-1,7-diamine]
IC50 ([1]; CDK6/CCND, 25-250 nM marked x, read-out: CDK6/CCND IC50 25-250 nM): 25 to 250 nM
IC50 [2, 16]: < 25 nM
IC50 ([3]; CDK4/CCND, 25-250 nM marked x, read-out: CDK4/CCND IC50 25-250 nM): 25 to 250 nM
IC50 ([4]; CDK1/CCNB, 25-250 nM marked x, read-out: CDK1/CCNB IC50 25-250 nM): 25 to 250 nM

Cc1c(-c2nccc3cnc(Nc4ccc(S(=O)(=O)Nc5ncc(Cl)cn5)cc4)cc23)ccc2c1cnn2CC(C)(C)O [Ex 895, N-(5-chloropyrimidin-2-yl)-4-((5-(1-(2-hydroxy-2-methylpropyl)-4-methyl-1H-indazol-5-yl)-2,6-naphthyridin-3-yl)amino)benzenesulfonamide]
IC50 [1, 8]: > 250 nM
IC50 [2, 15]: 25 to 250 nM
IC50 [3, 9]: > 250 nM
IC50 [4, 10]: > 250 nM

CS(=O)(=O)c1ccc(Nc2cc3c(C#Cc4ccc(Cl)c(F)c4N)nccc3cn2)cc1 [Ex 530, 5-((2-amino-4-chloro-3-fluorophenyl)ethynyl)-N-(4-(methylsulfonyl)phenyl)-2,6-naphthyridin-3-amine]
IC50 [1, 11]: > 250 nM
IC50 [2, 13]: 25 to 250 nM
IC50 [3, 12]: > 250 nM
IC50 [4, 14]: > 250 nM

Cc1nn(C)cc1S(=O)(=O)Nc1ccc(Nc2cc3c(-c4ccc5c(cnn5CC(C)(C)O)c4C)nccc3cn2)cc1 [Ex 843, N-(4-((5-(1-(2-hydroxy-2-methylpropyl)-4-methyl-1H-indazol-5-yl)-2,6-naphthyridin-3-yl)amino)phenyl)-1,3-dimethyl-1H-pyrazole-4-sulfonamide]
IC50 ([1]; 25-250 nM, CDK6/CCND, 1 mM ATP, read-out: CDK6/CCND IC50, 25-250 nM): 25 to 250 nM
IC50 ([2]; <25 nM, CDK2/CCNE, read-out: CDK2/CCNE IC50, <25 nM): < 25 nM
IC50 ([3]; 25-250 nM, CDK4/CCND, read-out: CDK4/CCND IC50, 25-250 nM): 25 to 250 nM
IC50 [4, 10]: > 250 nM

C=CS(=O)(=O)c1ccc(Nc2cc3c(N4CCC(C#N)CC4)nccc3cn2)cc1 [Example 15, 1-(7-((4-(vinylsulfonyl)phenyl)amino)-2,6-naphthyridin-1-yl)piperidine-4-carbonitrile]
IC50 [1, 5]: > 250 nM
IC50 ([2]; CDK2/CCNE, 25-250 nM marked x, read-out: CDK2/CCNE IC50 25-250 nM): 25 to 250 nM
IC50 [3, 6]: > 250 nM
IC50 [4, 7]: > 250 nM

CS(=O)(=O)c1ccc(Nc2cc3c(C#Cc4cccnc4O)nccc3cn2)cc1 [Ex 583, 3-((7-((4-(methylsulfonyl)phenyl)amino)-2,6-naphthyridin-1-yl)ethynyl)pyridin-2(1H)-one]
IC50 [1, 11]: > 250 nM
IC50 [2, 13]: 25 to 250 nM
IC50 [3, 12]: > 250 nM
IC50 [4, 14]: > 250 nM

Cc1cc(C#Cc2nccc3cnc(Nc4ccc(S(C)(=O)=O)cc4)cc23)sn1 [Ex 899, 5-((3-methylisothiazol-5-yl)ethynyl)-N-(4-(methylsulfonyl)phenyl)-2,6-naphthyridin-3-amine]
IC50 [1, 8]: > 250 nM
IC50 [2, 15]: 25 to 250 nM
IC50 [3, 9]: > 250 nM
IC50 [4, 10]: > 250 nM
